Among the data in ChEMBL document CHEMBL5518204, “Discovery and Proof of Concept of Potent Dual Polθ/PARP Inhibitors for Efficient Treatment of Homologous Recombination-Deficient Tumors” (J Med Chem, 2024) are Activity and CLint scaled values, retold here.

Series [1] can be described thus: Toxicity in BALB/c mouse xenografted with human MDA-MB-231 cells assessed as lung damage at 20 to 40 mg/kg, ip administered for 21 days by H and E staining based analysis. In kind it is organism-based. The conditions noted are these: in vivo, 504 h, dose 20-40 mg/kg, time 21 day. For orientation: A xenograft is tissue or cells of one species grown in another, often human tumour cells in immunodeficient mice.

The nature of series [2]: Metabolic stability in human liver microsome assessed as intrinsic clearance. The series is classed as ADME. The conditions noted are these: liver microsomes, read-out: CLH. For orientation: Microsomes from liver hold many membrane-bound enzymes, among them those of drug oxidation.

Structures are written as SMILES.

In the case of `COc1ccc(Cl)cc1-c1cc(C)ncc1C(=O)Nc1nnc(OCC2CCN(C(=O)c3cc(Cc4n[nH]c(=O)c5ccccc45)ccc3F)CC2)s1`, the Activity result in series [1] is “Non-Toxic”. In addition, the CLint scaled in series [2] came out at 681 mL/min/kg.
